# Measured values taken from paper doi:10.1101/171595v1 (biorxiv, 2017).
# System: HpaM
# Conditions: read-out: apparent Km; 50 mM PBS pH 7.0, 0.2 mM FAD, 5HPA as co-substrate, 25°C
structure (smiles),measurement,value
NC(=O)C1=CN([C@@H]2O[C@H](COP(=O)(O)OP(=O)(O)OC[C@H]3O[C@@H](n4cnc5c(N)ncnc54)[C@H](O)[C@@H]3O)[C@@H](O)[C@H]2O)C=CC1 [NADH],Km,37.8 ± 3.4 µM
